Test results taken from patent US20170010280A1, “GDF15 AS BIOMARKER FOR DIAGNOSING MITOCHONDRIAL DISEASES” (TOKYO METROPOLITAN GERIATRIC HOSPITAL AND INSTITUTE OF …, priority 2014, published 2017).
Like-named read-outs stand apart in the source and are kept apart here.

How the values were obtained:
[1] = tested on: 2SD cells (mitochondrial disease model cell); experiment: exhaustive gene expression analysis (microarray) after lactate or pyruvate treatment; type: cell-based, human
Excerpt: (i) Cybrid cells established from myoblasts in MELAS (mitochondrial myopathy, encephalopathy, lactic acidosis, and stroke-like episodes), which is relatively high incident among mitochondrial diseases patient and human osteosarcoma 143B cells were used in the experiment. Specifically, myoblast cells from MELAS patients lacking the cell nuclei were fused with human osteosarcoma-derived 143B cells lacking mitochondrial DNA (mtDNA). From some fused cell lines, a cell line without m.3243A>G mutation in mtDNA was used as control cell (2SA) and a cell line with m.3243A>G mutation with 94% was used as mitochondrial disease model cell (2SD) (the mutation ratio is not 100%, because mitochondria is heteroplasmy). Cells were cultured in high-glucose Dulbecco's modified Eagle's medium (DMEM) supplemented with 10% FBS, 1 mM sodium pyruvate, and 0.4 mM uridine at 37° C. under a humidified atmosphere of 5% CO2. Total RNA was isolated from cells by using a miRNeasy mini kit (Qiagen, Venlo, Netherlands). One hundred nanograms of total RNA was labeled and amplified with a low input quick amp labeling kit (Agilent Technologies, Santa Clara, Calif., USA) used according to the manufacturer's instructions. The labeled cRNA was hybridized to the Agilent SurePrint G3 Human GE 8×60K Microarray in a rotating hybridization oven at 10 rpm for 20 h at 65° C. After hybridization, the microarrays were washed according to the manufacturer's instructions and scanned on an Agilent DNA Microarray Scanner with Scan Control software. The resulting images were processed, and raw data were collected by using Agilent Feature Extraction software. Expression data were analyzed by using GeneSpring GX 11 (Agilent Technologies). The signal intensity of each probe was normalized by a percentile shift, in which each value was divided by the 75th percentile of all values in its array. For pairwise comparison analysis, only the probes that had expression flags present under at least one condition were considered. The list was analyzed with Ingenuity Pathways Analysis software (Ingenuity Systems, Redwood, Calif., USA). (i) 2SA cells and 2SD cells were collected at 0, 4, and 8 hours after treatment of 10 mM lactate or 10 mM of pyruvate. After RNA were extracted from these cells, exhaustive gene expression analysis were performed using microarray analysis.

[2] = tested on: 2SA cells (control cell); details: high concentration, non-patent document 1; cited from earlier work
[3] = tested on: 2SD cells; details: 10 mM, 4 hours after treatment, non-patent document 1; cited from earlier work
[4] = tested on: 2SD cells; experiment: metabolome analysis of energy metabolism; type: cell-based, human; details: 10 mM, 4 hours after treatment
Experimental: (§1) (ii) Metabolome analysis were performed using 2SA cells and 2SD cells. […] The energy metabolism disorder has become remarkable 4 hours after treatment of high concentration of lactic acid (10 mM) in 2SD cells, and the phenomenon was not observed after treatment of high concentration of pyruvic acid (10 mM). The energy metabolism disorder was not observed after treatment of high concentration of lactic acid in 2SA cells. Based on the results, we came up with the forecast that the genes expressed in 2SD cells with energy metabolism disorders in a high concentration of lactic acid may be new biomarkers that reflects the energy metabolic disorder of mitochondrial disease patients.

[5] = tested on: 2SA cells (control cell); experiment: metabolome analysis of energy metabolism; type: cell-based, human; details: high concentration
Experimental: as §1

[6] = tested on: 2SD cells; experiment: ELISA of GDF15 concentration in culture medium; type: cell-based, human; details: 10 mM lactate, medium cultured 24 h
Experimental: Cells were placed on 60-mm dishes 1 day before replacing the medium with fresh medium. Conditioned medium cultured for 24 h was collected, and the particulates were removed by centrifugation (at 500×g for 10 min, at 10,000×g for 30 min). The GDF15 and INHBE concentrations in the supernatants and in the sera of patients were determined in duplicate by using a Human GDF-15 Immunoassay (DGD150, R&D Systems, Minneapolis, Minn., USA) and enzyme-linked immunosorbent assay kit for Inhibin Beta E (E90048Hu, Uscn Life Science, Wuhan, Hubei, PRC) according to the manufacturer's instructions. For measuring IL1A and other cytokine concentrations, the sera were subjected to a multiplex suspension array, Bio Plex Pro Human Cytokine Grp II Panel 21-Plex (MF0-005KMII, Bio-Rad, Hercules, Calif., USA). The cytokines measured by use of this array were the following: IL-2Rα, IL-3, IL-12 (p40), IL-16, IL-18, CTACK, GRO-α, HGF, IFN-α2, LIF, MCP-3, M-CSF, MIF, MIG, β-NGF, SCF, SCGF-β, SDF-1α, TNF-β, and TRAIL.
(v) The concentrations of three secreted proteins as candidate biomarkers in cell culture were measured by ELISA and multiplex suspension arrays. […] Other secreted proteins could not be measured under the detection limit.

[7] = tested on: 2SD cells; experiment: quantitative RT-PCR of GDF15, INHBE and IL1A expression; type: cell-based, human; details: 10 mM, 4 and 8 hours after treatment
Experimental: Total RNA was isolated from cells with miRNeasy-minikit (Qiagen), and reverse transcribed to cDNA with a High Capacity cDNA Reverse Transcription Kit (Life Technologies, Carlsbad, Calif., USA) used according to the manufacturer's protocols. Real-time PCR was performed on the StepOnePlus Real-Time PCR System (Life Technologies) using Power SYBR Green PCR Master Mix. 18S rRNA gene was used as an internal control for normalization. The sequences of primers are listed in Table 1(The numbers in the sequence listing, SEQ ID NO: 1 to 1 stage left, SEQ ID NO: 2 to the right sequentially subjected to SEQ ID NO: 8.).
(iv) In order to determine the expression level of GDF15, INHBE and IL1A in cells, quantitative RT-PCRs were performed. The expression level of GDF15, INHBE, and IL1A were increased at 4 and 8 hours after treatment with 10 mM lactate in 2SD cells, otherwise they were not changed after treatment with 10mM pyruvate. The expression level of GDF15 was higher in 2SD cells than in 2SA cells at 0 hour. On the results, the reproducibility of the microarray data were confirmed. GDF15, INHBE, and IL1A were identified as biomarkers for mitochondrial diseases (FIG. 2 to FIG. 4).

[8] = tested on: mitochondrial disease patients; experiment: sodium pyruvate therapy for mitochondrial disease patients; type: in vivo, human; details: patients n=10, 0.3 g/kg to 2 g/kg, over seven years
Excerpt: 4. Study of sodium pyruvate therapy for mitochondrial disease patients For mitochondrial disease patients (n=10), sodium pyruvate (0.3 g/kg to 2 g/kg) had been administered for over seven years. During the period, the transition of
FGF-21 and GDF-15 had been determined and parameters of other therapeutic effects had been investigated. The mitochondrial disease patients contained PDH E1A deficiency, MELAS/cardiomyopathy with A3243G mutation, and MELAS/Leigh syndrome with G13513A mutation in the ND5 gene.

[9] = 10 mM lactate, 8 h vs 0 h after lactate treatment
[10] = lactate vs pyruvate treatment at 8 h

SMILES: CC(O)C(=O)O (stereo not shown) [lactate, lactic acid]
- Fold Change L-8/L-0, ADAMTS17 [1, 9]: 3.5
- Fold Change L-8/L-0, ADM2 [1, 9]: 10.3
- Fold Change L-8/L-0, AMTN [1, 9]: 5.0
- Fold Change L-8/L-0, APOL6 [1, 9]: 6.2
- Fold Change L-8/L-0, AREG [1, 9]: 14.0
- Fold Change L-8/L-0, C1QTNF1 [1, 9]: 2.6
- Fold Change L-8/L-0, C12orf39 [1, 9]: 6.3
- Fold Change L-8/L-0, CLEC3B [1, 9]: 2.1
- Fold Change L-8/L-0, CXCL1 [1, 9]: −3.4
- Fold Change L-8/L-0, DKK1 [1, 9]: −2.1
- Fold Change L-8/L-0, ECM2 [1, 9]: 11.8
- Fold Change L-8/L-0, GDF15 [1, 9]: 27.4
- Fold Change L-8/L-0, HECW2 [1, 9]: 2.4
- Fold Change L-8/L-0, IGFALS [1, 9]: 2.3
- Fold Change L-8/L-0, IGFBPI [1, 9]: 2.3
- Fold Change L-8/L-0, IL1A [1, 9]: 7.6
- Fold Change L-8/L-0, IL23A [1, 9]: 4.4
- Fold Change L-8/L-0, INHBE [1, 9]: 15.0
- Fold Change L-8/L-0, MMP3 [1, 9]: 9.8
- Fold Change L-8/L-0, PDGFA [1, 9]: 2.2
- Fold Change L-8/L-0, PDGFB [1, 9]: 2.8
- Fold Change L-8/L-0, PDZRN3 [1, 9]: −2.4
- Fold Change L-8/L-0, SCG5 [1, 9]: 5.2
- Fold Change L-8/L-0, SLC39A10 [1, 9]: −2.3
- Fold Change L-8/L-0, SPOCK2 [1, 9]: 5.1
- Fold Change L-8/L-0, STC2 [1, 9]: 3.4
- Fold Change L-8/L-0, VEGFA [1, 9]: 3.4
- Fold Change L-8/P-8, ADAMTS17 [1, 10]: 2.2
- Fold Change L-8/P-8, ADM2 [1, 10]: 3.0
- Fold Change L-8/P-8, AMTN [1, 10]: 3.9
- Fold Change L-8/P-8, APOL6 [1, 10]: 3.8
- Fold Change L-8/P-8, AREG [1, 10]: 2.2
- Fold Change L-8/P-8, C1QTNF1 [1, 10]: 2.9
- Fold Change L-8/P-8, C12orf39 [1, 10]: 6.7
- Fold Change L-8/P-8, CLEC3B [1, 10]: 2.2
- Fold Change L-8/P-8, CXCL1 [1, 10]: −2.6
- Fold Change L-8/P-8, DKK1 [1, 10]: −2.3
- Fold Change L-8/P-8, ECM2 [1, 10]: 9.0
- Fold Change L-8/P-8, GDF15 [1, 10]: 14.8
- Fold Change L-8/P-8, HECW2 [1, 10]: 2.1
- Fold Change L-8/P-8, IGFALS [1, 10]: 2.5
- Fold Change L-8/P-8, IGFBPI [1, 10]: 2.1
- Fold Change L-8/P-8, IL1A [1, 10]: 6.0
- Fold Change L-8/P-8, IL23A [1, 10]: 2.8
- Fold Change L-8/P-8, INHBE [1, 10]: 9.4
- Fold Change L-8/P-8, MMP3 [1, 10]: 4.2
- Fold Change L-8/P-8, PDGFA [1, 10]: 2.2
- Fold Change L-8/P-8, PDGFB [1, 10]: 3.8
- Fold Change L-8/P-8, PDZRN3 [1, 10]: −2.0
- Fold Change L-8/P-8, SCG5 [1, 10]: 3.0
- Fold Change L-8/P-8, SLC39A10 [1, 10]: −2.9
- Fold Change L-8/P-8, SPOCK2 [1, 10]: 6.6
- Fold Change L-8/P-8, STC2 [1, 10]: 2.6
- Fold Change L-8/P-8, VEGFA [1, 10]: 2.5
- energy metabolism disorder [2]: not observed
- energy metabolism disorder [3]: remarkable
- energy metabolism disorder [4]: remarkable
- energy metabolism disorder [5]: not observed
- concentration of GDF15 in culture medium [6]: increased
- expression level of GDF15 [7]: increased
- expression level of IL1A [7]: increased
- expression level of INHBE [7]: increased

SMILES: CC(=O)C(=O)O [pyruvate, pyruvic acid]
- energy metabolism disorder [3]: not observed
- energy metabolism disorder [4]: not observed
- expression level of GDF15 [7]: not changed
- expression level of IL1A [7]: not changed
- expression level of INHBE [7]: not changed

SMILES: CC(=O)C(=O)[O-].[Na+] [sodium pyruvate]
- concentration of GDF-15 [8]: significantly reduced
- concentration of alanine [8]: significantly reduced
- concentration of lactate [8]: significantly reduced
- concentration of pyruvate [8]: significantly reduced
- side effects [8]: no side effects were observed
- therapeutic effect [8]: highly effective therapy
